{"source": "patent US8741940B2", "about": "“Microbicidal composition” (Rohm and Haas Company, priority 2005, dated 2014)", "assay_type_in_all_cases": "cell-based", "key": {"[1]": {"system": "Escherichia coli (E. coli—ATCC #8739)", "assay": "Synergy test, microtiter plate high resolution MIC assay, bacterium in M9GY medium", "set-up": "key to SI (synergy index): SI = Qa/QA + Qb/QB; >1 antagonism, lower SI = greater synergy; Qa (First Component A) / Qb (Second Component B): unit: ppm", "conditions": "for MIC: Escherichia coli, read-out: Qb (concentration of second component producing the end point, MIC)", "method": "(§1) When the sum of Qa/QA and Qb/QB is greater than one, antagonism is indicated. […] The lower the SI, the greater the synergy shown by that particular mixture. The minimum inhibitory concentration (MIC) of a microbicide is the lowest concentration tested under a specific set of conditions that prevents the growth of added microorganisms.\n(§2) Synergy tests were conducted using standard microtiter plate assays with media designed for optimal growth of the test microorganism. Minimal salt medium supplemented with 0.2% glucose and 0.1% yeast extract (M9GY medium) was used for testing bacteria; Potato Dextrose Broth (PDB medium) was used for testing yeast and mold. In this method, a wide range of combinations of microbicides and other personal care raw materials was tested by conducting high resolution MIC assays in the presence of various concentrations of BBIT or MBIT. High resolution MICs were determined by adding varying amounts of microbicide to one column of a microtitre plate and doing subsequent […] dilutions using an automated liquid handling system to obtain a series of endpoints ranging from 2 ppm to 10,000 ppm active ingredient.\n(§3) The bacteria were used at a concentration of about 5 ×10^6 bacteria per mL and the yeast and mold at 5×10^5 fungi per mL. These microorganisms are representative of natural contaminants in many consumer and industrial applications. […] (yeast and mold) or 30° C. (bacteria).\n(§4) In each test, First Component (A) was BBIT and the Second Component (B) was the other commercial microbicide.\n(§5) In each test, First Component (A) was MBIT and the Second Component (B) was the other commercial microbicide."}, "[2]": {"system": "Candida albicans (C. albicans—ATCC 10231)", "assay": "Synergy test, microtiter plate high resolution MIC assay, yeast in PDB medium", "set-up": "key to SI (synergy index): SI = Qa/QA + Qb/QB; >1 antagonism, lower SI = greater synergy; Qb (Second Component B) / Qa (First Component A): unit: ppm", "conditions": "for MIC: Candida albicans, read-out: Qb (concentration of second component producing the end point, MIC)", "method": "as §1, §2, §3, §4, §5"}, "[3]": {"system": "Aspergillus niger (A. niger—ATCC 16404)", "assay": "Synergy test, microtiter plate high resolution MIC assay, mold in PDB medium", "set-up": "key to SI (synergy index): SI = Qa/QA + Qb/QB; >1 antagonism, lower SI = greater synergy; Qb (Second Component B) / Qa (First Component A): unit: ppm", "conditions": "for MIC: Aspergillus niger, read-out: Qb (concentration of second component producing the end point, MIC)", "method": "as §1, §2, §3, §4, §5"}, "[4]": {"conditions": "E. coli 8739, M9GY, 24 hours, alone where Qa = 0, otherwise in the mixture"}, "[5]": {"conditions": "C. albicans 10231, PDB, 48 hours"}, "[6]": {"conditions": "C. albicans 10231, PDB, 24 hours"}, "[7]": {"conditions": "A=MBIT, B=Caprylyl glycol, E. coli 8739 - M9GY, 24 hours"}, "[8]": {"conditions": "A=MBIT, B=Caprylyl glycol, C. albicans 10231 - PDB, 24 hours"}, "[9]": {"conditions": "A=MBIT, B=Caprylyl glycol, A. niger 16404 - PDB, 4 days"}}, "note": "Like-named read-outs stand apart in the source and are kept apart here."}
{"compound": "Zinc pyrithione", "values": [{"measurement": "Qb (concentration of Second Component B = Zinc pyrithione at the end point)", "setting": "[1]", "value": 2}, {"measurement": "SI (synergy index)", "setting": "[1]", "value": 1.00}, {"measurement": "Qb (concentration of Second Component B = Zinc pyrithione at the end point)", "setting": "[2]", "value": 30}, {"measurement": "SI (synergy index)", "setting": "[2]", "value": 1.00}, {"measurement": "Qb (concentration of Second Component B = Zinc pyrithione at the end point)", "setting": "[3]", "value": 20}, {"measurement": "SI (synergy index)", "setting": "[3]", "value": 1.00}]}
{"compound": "O=C([O-])c1ccccc1.[Na+]", "note": "[Sodium benzoate]", "values": [{"measurement": "SI (synergy index)", "setting": "[1]; E. coli 8739, M9GY, 24 hours", "value": 1.00}, {"measurement": "Qb (concentration of second component producing the end point, MIC)", "setting": "[1]; [4]", "value": 10000, "unit": "ppm"}, {"measurement": "SI", "setting": "[1]; E. coli 8739 - M9GY, 24 hours, BBIT with Sodium benzoate", "value": 1.00}, {"measurement": "SI (synergy index)", "setting": "[2]; [5]", "value": 1.00}, {"measurement": "Qb (concentration of second component producing the end point, MIC)", "setting": "[2]; C. albicans 10231, PDB, 48 hours, alone where Qa = 0, otherwise in the mixture", "value": 2000, "unit": "ppm"}, {"measurement": "SI", "setting": "[2]; C. albicans 10231 - PDB, 48 hours, BBIT with Sodium benzoate", "value": 1.00}, {"measurement": "SI (synergy index)", "setting": "[3]; A. niger 16404, PDB, 7 days", "value": 1.00}, {"measurement": "Qb (concentration of second component producing the end point, MIC)", "setting": "[3]; A. niger 16404, PDB, 7 days, alone where Qa = 0, otherwise in the mixture", "value": 10000, "unit": "ppm"}, {"measurement": "SI", "setting": "[3]; A. niger 16404 - PDB, 7 days, BBIT with Sodium benzoate", "value": 1.00}]}
{"compound": "O=C(O)CN(CCN(CC(=O)O)CC(=O)O)CC(=O)O", "note": "[Ethylenediamine tetraacetic acid]", "values": [{"measurement": "SI (synergy index)", "setting": "[1]", "value": 1.00}, {"measurement": "MIC", "setting": "[1]; ATCC8739, 24 h", "value": 40000, "unit": "µg/mL"}, {"measurement": "SI (synergy index)", "setting": "[2]", "value": 1.00}, {"measurement": "MIC", "setting": "[2]; ATCC10231, 48 h", "value": 1000, "unit": "µg/mL"}, {"measurement": "SI (synergy index)", "setting": "[3]", "value": 1.00}, {"measurement": "MIC", "setting": "[3]; ATCC16404, 72 h", "value": 1600, "unit": "µg/mL"}]}
{"compound": "ClC=CC[N+]12CN3CN(CN(C3)C1)C2.[Cl-]", "note": "[Quaternium-15, 1-(3-chloroallyl)-3,5,7-triaza-1-azoniaadamantane chloride]", "values": [{"measurement": "SI (synergy index)", "setting": "[1]; E. coli 8739, M9GY, 24 hours", "value": 1.00}, {"measurement": "SI", "setting": "[1]; E. coli 8739 - M9GY, 72 hours, BBIT with Quaternium-15", "value": 1.00}, {"measurement": "MIC", "setting": "[1]; ATCC8739, 24 h", "value": 50, "unit": "µg/mL"}, {"measurement": "SI (synergy index)", "setting": "[2]; [6]", "value": 1.00}, {"measurement": "SI", "setting": "[2]; C. albicans 10231 - PDB, 24 hours, BBIT with Quaternium-15", "value": 1.00}, {"measurement": "MIC", "setting": "[2]; ATCC10231, 24 h", "value": 500, "unit": "µg/mL"}, {"measurement": "SI (synergy index)", "setting": "[3]; A. niger 16404, PDB, 3 days", "value": 1.00}, {"measurement": "SI", "setting": "[3]; A. niger 16404 - PDB, 4 days, BBIT with Quaternium-15", "value": 1.00}, {"measurement": "MIC", "setting": "[3]; ATCC16404, 72 h", "value": 3000, "unit": "µg/mL"}]}
{"compound": "CCCCCCC(O)CO", "note": "(centres unmarked) [Caprylyl glycol]", "values": [{"measurement": "Qb (Second Component B)", "setting": "[1]; [7]", "value": 2000}, {"measurement": "SI (synergy index)", "setting": "[1]; [7]", "value": 1.00}, {"measurement": "MIC of the component acting alone (QA / QB)", "setting": "[1]; E. coli 8739, M9GY, 24 hours, 30° C.", "value": 2000, "unit": "ppm"}, {"measurement": "Qb (Second Component B)", "setting": "[2]; [8]", "value": 4000}, {"measurement": "SI (synergy index)", "setting": "[2]; [8]", "value": 1.00}, {"measurement": "MIC of the component acting alone (QA / QB)", "setting": "[2]; C. albicans 10231, PDB, 24 hours, 25° C.", "value": 3000, "unit": "ppm"}, {"measurement": "MIC of the component acting alone (QA / QB)", "setting": "[3]; A. niger 16404, PDB, 7 days, 25° C.", "value": 3000, "unit": "ppm"}, {"measurement": "Qb (Second Component B)", "setting": "[3]; [9]", "value": 1000}, {"measurement": "SI (synergy index)", "setting": "[3]; [9]", "value": 1.00}]}
{"compound": "COC(=O)c1ccc(O)cc1", "note": "[Methylparaben]", "values": [{"measurement": "SI (synergy index)", "setting": "[1]; E. coli 8739, M9GY, 24 hours", "value": 1.00}, {"measurement": "SI", "setting": "[1]; E. coli 8739 - M9GY, 72 hours, BBIT with Methylparaben", "value": 1.00}, {"measurement": "MIC", "setting": "[1]; ATCC8739, E. coli 8739, M9GY, 24 hours, alone where Qa = 0, otherwise in the mixture", "value": 2000, "unit": "µg/mL"}, {"measurement": "SI (synergy index)", "setting": "[2]; [5]", "value": 1.00}, {"measurement": "SI", "setting": "[2]; C. albicans 10231 - PDB, 24 hours, BBIT with Methylparaben", "value": 1.00}, {"measurement": "MIC", "setting": "[2]; ATCC10231, C. albicans 10231, PDB, 48 hours, alone where Qa = 0, otherwise in the mixture", "value": 2000, "unit": "µg/mL"}, {"measurement": "SI (synergy index)", "setting": "[3]; A. niger 16404, PDB, 7 days", "value": 1.00}, {"measurement": "SI", "setting": "[3]; A. niger 16404 - PDB, 3 days, BBIT with Methylparaben", "value": 1.00}, {"measurement": "MIC", "setting": "[3]; ATCC16404, 168 h, A. niger 16404, PDB, 7 days, alone where Qa = 0, otherwise in the mixture", "value": 800, "unit": "µg/mL"}]}
{"compound": "N=C(N)c1ccc(OCCCCCCOc2ccc(C(=N)N)cc2)cc1.O=S(=O)(O)CCO.O=S(=O)(O)CCO", "note": "[Hexamidine diisethionate]", "values": [{"measurement": "SI (synergy index)", "setting": "[1]; E. coli 8739, M9GY, 24 hours", "value": 1.00}, {"measurement": "Qb (concentration of second component producing the end point, MIC)", "setting": "[1]; [4]", "value": 8, "unit": "ppm"}, {"measurement": "SI", "setting": "[1]; E. coli 8739 - M9GY, 48 hours, BBIT + hexamidine diisethionate", "value": 1.00}, {"measurement": "Qb (Second Component B = Hexamidine diisethionate)", "setting": "[1]; E. coli 8739 - M9GY, 48 hours, hexamidine diisethionate alone (Qa 0) or in mixture with BBIT", "value": 100}, {"measurement": "SI (synergy index)", "setting": "[2]; [6]", "value": 1.00}, {"measurement": "Qb (concentration of second component producing the end point, MIC)", "setting": "[2]; C. albicans 10231, PDB, 24 hours, alone where Qa = 0, otherwise in the mixture", "value": 10, "unit": "ppm"}, {"measurement": "SI", "setting": "[2]; C. albicans 10231 - PDB, 24 hours, BBIT + hexamidine diisethionate", "value": 1.00}, {"measurement": "Qb (Second Component B = Hexamidine diisethionate)", "setting": "[2]; C. albicans 10231 - PDB, 24 hours, hexamidine diisethionate alone (Qa 0) or in mixture with BBIT", "value": 10}]}
